{
  "source": "patent US10905665B2",
  "about": "“Chemical modulators of signaling pathways and therapeutic use” (Duke University, priority 2015, dated 2021)",
  "key": {"Frizzled1-GFP": {"biological_target": "T1, Frizzled1-GFP (Homo sapiens, UniProt Q9UP38)", "T1 construct": "expressed in transfected cells", "T1 sequence (Q9UP38 70-647)": "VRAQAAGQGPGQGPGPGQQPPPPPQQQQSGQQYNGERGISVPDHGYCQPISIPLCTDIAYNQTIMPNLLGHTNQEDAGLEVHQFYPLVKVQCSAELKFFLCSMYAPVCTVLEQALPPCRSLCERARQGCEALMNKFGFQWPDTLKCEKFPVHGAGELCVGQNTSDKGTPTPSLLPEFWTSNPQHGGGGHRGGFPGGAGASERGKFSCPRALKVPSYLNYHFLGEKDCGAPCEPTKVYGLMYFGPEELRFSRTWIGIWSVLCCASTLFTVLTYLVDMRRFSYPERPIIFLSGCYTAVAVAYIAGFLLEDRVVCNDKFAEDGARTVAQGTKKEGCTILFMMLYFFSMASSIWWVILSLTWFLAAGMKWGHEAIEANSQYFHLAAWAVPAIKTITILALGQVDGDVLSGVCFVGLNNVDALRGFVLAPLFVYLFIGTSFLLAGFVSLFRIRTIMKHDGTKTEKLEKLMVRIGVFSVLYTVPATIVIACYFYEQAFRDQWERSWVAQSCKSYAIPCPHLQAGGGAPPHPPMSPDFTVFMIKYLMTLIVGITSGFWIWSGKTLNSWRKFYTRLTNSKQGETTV", "experiment": "Frizzled internalization assay (Fzd1-GFP)", "format": "cell-based", "design": "key: Punctate similar to control=0; trace amount of punctate greater than control=1; moderate=3; strong=5", "settings": "6 hours, 0-5 point scale", "experimental": "The Fzd1-GFP assay was performed following a procedure similar to previously published work (Chen, M. Y.; Wang, J. B.; Lu, J. Y.; Bond, M. C.; Ren, X. R.; Lyerly, H. K.; Barak, L. S.; Chen, W. Biochemistry 2009, 48, 10267). Cells stably expressing Frizzled1-GFP plated in confocal dishes were treated, after 24 hours, with 12.5 μM of test compound or DMSO for 6 hours at 37° C. followed by fixation with 4% paraformaldehyde. The cells were then examined by microscopy using a LSM 510-Meta confocal microscope (Carl Zeiss, Thornwood, N.Y., USA) equipped with 40× and 100× apo chromat objectives. YFP was excited using a 488-nm argon laser line. Images were processed using the LSM software Image Browser (CarlZeiss, Thornwood, N.Y., USA). Plates were read twice in blinded fashion using a 0-5 point scale. ^aPunctate similar to control=0, trace amount of punctate greater than control=1, moderate=3, strong=5."}, "β-catenin": {"test_system": "β-catenin", "experiment": "Western blot of cytosolic β-catenin in HCT-116 cells", "format": "cell-based", "settings": "Homo sapiens, 2.0 μM compound, read-out: Remaining cytosolic β-catenin", "experimental": "Western blots were performed following a procedure similar to previously published work (Osada, T.; Chen, M. Y.; Yang, X. Y.; Spasojevic, I.; Vandeusen, J. B.; Hsu, D.; Clary, B. M.; Clay, T. M.; Chen, W.; Morse, M. A.; Lyerly, H. K. Cancer Research 2011, 71, 4172). HCT-116 cells were grown to about 80% confluency in poly-D-lysine coated six-well plates 48 hours before treatment and followed by 2.0 μM compounds or DMSO incubation for 18 hours in growth medium. After treatment, the cytosolic fraction was isolated as described (Osada, T.; Chen, M. Y.; Yang, X. Y.; Spasojevic, I.; Vandeusen, J. B.; Hsu, D.; Clary, B. M.; Clay, T. M.; Chen, W.; Morse, M. A.; Lyerly, H. K. Cancer Research 2011, 71, 4172). Immunoblots using antibodies to […] (E-5, Santa Cruz Biotechnology catalog number sc-7963) was used to detect β-catenin protein levels in the cytosol, and immunoblots using antibodies to β-actin (C-4, Santa Cruz Biotechnology, catalog number SC-47778) was used for loading controls.\nInhibition of Wnt signaling was determined by analyzing the reduction of cytosolic β-catenin by Western blot (FIG. 1, 2)."}, "[1]": {"test_system": "colon cancer cell line HCT116", "experiment": "Cell proliferation assay (MTS)", "format": "cell-based", "settings": "for IC50: Homo sapiens, HCT-116, HCT116, 72 hours, 0.04 to 10 μM, read-out: Anti-proliferation IC50 (μM), MTS assay", "experimental": "The colon cancer cell line HCT116 was used in the cell proliferation assay. The cells were plated in 100 μl of growing medium/well in 96-well plates at 5,000 cells per well and treated with compounds from 0.04 to 10 μM for 72 hours, after which point the cells were analyzed by colorimetric MTS assay (Promega, Madison, Wis., USA). Data were fit using GraphPad Prism (mean±SEM, n 3)."}, "[2]": {"settings": "niclosamide dosed orally as a solution at 200 mg/kg, reported (Osada 2011); cited from earlier work"}, "[3]": {"test_system": "Wnt/β-catenin transcription", "experiment": "Wnt-3A-stimulated TOPFlash reporter assay in HEK293 cells", "format": "cell-based", "settings": "Homo sapiens, Wnt-3A conditioned medium, 8 hour treatment, read-out: Inhibition Wnt/β-catenin transcription TopFlash IC50", "experimental": "Stably transfected cells were seeded in 100 μl of cell growth medium/well in 96-well plates at 100% confluency. Fifty microliters of Wnt-3A conditioned medium containing the chemical compounds to be tested or DMSO was added to each well. After an 8 hour treatment, the cells were washed once with PBS and lysed with 55 μl of Passive Lysis Buffer supplied in the Dual-Luciferase Reporter Assay kit (Promega, Madison, Wis.). Twenty-five microliters of cell lysate was used for measuring luciferase activity in a 96-well plate reader (FluoStar Optima, BMG Labtech, Chicago, Ill.). Data were fit using GraphPad Prism (mean±SEM, n>=2)."}, "[4]": {"experiment": "Pharmacokinetic studies, niclosamide in mouse plasma", "format": "in vivo, CD1 mice", "settings": "mice", "experimental": "For niclosamide dosed IV, niclosamide was dissolved in a solvent of 67% polyethylene glycol 400 and 33% N,N-dimethylacetamide at a concentration of 3.27 mg/mL and tail vein injected at a dose of 2.6 mg/kg of body weight. Blood samples were obtained at predose and at 0.08, 0.17, 0.33, 0.67, 1.5, 4, 8, 12 hours after drug administration. For oral dosing of compound 74, compound 74 was dissolved in a solvent of 90% polyethylene glycol 300 and 10% 1-methyl-2-pyrrolidinone at a concentration of 20 mg/mL and gavaged at a dose of 200 mg/kg of body weight. Blood samples were obtained at predose and at 0.25, 0.5, 1, 2, 4, 8 hours after drug administration. For oral dosing of compound 61, compound 61 was dissolved in corn oil at a concentration of 20 mg/mL and dosed at 200 mg/kg of body weight. Blood samples were obtained at predose and at 0.25, 0.5, 0.75, 1, 1.5, 4, 8, 12, 24, 48, and 72 hours after drug administration. All the solvent reagents were purchased from Sigma-Aldrich (St. Louis, Mo., USA). CD1 mice were used in the pharmacokinetic studies. Quantification of niclosamide in mouse plasma was done by LC/MS-MS using methods similar to those previously published (Osada, T.; Chen, M. Y.; Yang, X. Y.; Spasojevic, I.; Vandeusen, J. B.; Hsu, D.; Clary, B. M.; Clay, T. M.; Chen, W.; Morse, M. A.; Lyerly, H. K. Cancer Research 2011, 71, 4172.)."}, "[5]": {"test_system": "High Fat Diet (HFD)-Induced Hepatic Steatosis", "experiment": "Reduction of high fat diet (HFD)-induced hepatic steatosis", "format": "in vivo, C57BL/6J mice", "settings": "200 mg/kg oral gavage, three months", "experimental": "Five week old male C57BL/6J mice were fed with chow or high fat diet for two months, followed by same diet and oral gavage of vehicle (corn oil) or compound 61 at 200 mg/kg for three months (daily for 6 days a week from Monday to Saturday). Liver tissue samples were collected after the three month treatment. Pictures shown in FIG. 9 are representative liver sections stained with H&E. A. Chow mice with vehicle; B. Chow mice with compound 61; C. HFD mice with vehicle; D. HFD mice with compound 61. […] The white fat deposits look similar in both panel A and B. However, when mice were fed a high fat diet (panel C), a large amount of white fatty deposits can be seen along with a large amount of dysplastic liver tissue."}},
  "note": "Where two headings read alike, the source gives them in different places.",
  "data": [
    {"smiles": "O=C(Nc1ccc([N+](=O)[O-])cc1Cl)c1cc(Cl)ccc1O", "note": "[A, 5-chloro-N-(2-chloro-4-nitrophenyl)-2-hydroxybenzamide, reference compound]", "values": [
      {"measurement": "Fzd1-GFP internalization @12.5 μM", "setting": "Frizzled1-GFP", "value": 5},
      {"measurement": "activity at 2 µM", "setting": "β-catenin; HCT-116, 18 h", "value": 8, "unit": "%"},
      {"measurement": "IC50", "setting": "[1]", "value": "0.45 ± 0.05", "unit": "µM"},
      {"measurement": "Time plasma levels of niclosamide were above the TOPFlash IC50", "setting": "[2]", "value": "less than 1 hour"},
      {"measurement": "IC50", "setting": "[3]; HEK293, 8 h", "value": "0.34 ± 0.08", "unit": "µM"}
    ]},
    {"smiles": "O=C(Nc1ccc(C(F)(F)F)cc1Cl)c1cc(Cl)ccc1O", "note": "[Compound 7, 5-chloro-N-(2-chloro-4-(trifluoromethyl)phenyl)-2-hydroxybenzamide]", "values": [
      {"measurement": "Fzd1-GFP internalization @12.5 μM", "setting": "Frizzled1-GFP", "value": 5},
      {"measurement": "activity at 2 µM", "setting": "β-catenin; HCT-116, 18 h", "value": 6, "unit": "%"},
      {"measurement": "IC50", "setting": "[1]", "value": "0.54 ± 0.08", "unit": "µM"},
      {"measurement": "Pharmacokinetic properties after oral administration, in words", "setting": "[4]", "value": "poor pharmacokinetic properties"},
      {"measurement": "IC50", "setting": "[3]; HEK293, 8 h", "value": "0.56 ± 0.21", "unit": "µM"}
    ]},
    {"smiles": "O=C(Nc1ccc(Cl)cc1Cl)c1cc(Cl)ccc1O", "note": "[Compound 14, 5-chloro-N-(2,4-dichlorophenyl)-2-hydroxybenzamide]", "values": [
      {"measurement": "Fzd1-GFP internalization @12.5 μM", "setting": "Frizzled1-GFP", "value": 5},
      {"measurement": "activity at 2 µM", "setting": "β-catenin; HCT-116, 18 h", "value": 7, "unit": "%"},
      {"measurement": "IC50", "setting": "[1]", "value": "1.18 ± 0.14", "unit": "µM"},
      {"measurement": "IC50", "setting": "[3]; HEK293, 8 h", "value": "0.42 ± 0.1", "unit": "µM"}
    ]},
    {"smiles": "O=C(Nc1c(Cl)cccc1Cl)c1cc(Cl)ccc1O", "note": "[Compound 18, 5-chloro-N-(2,6-dichlorophenyl)-2-hydroxybenzamide]", "values": [
      {"measurement": "Fzd1-GFP internalization @12.5 μM", "setting": "Frizzled1-GFP", "value": 0},
      {"measurement": "activity at 2 µM", "setting": "β-catenin; HCT-116, 18 h", "value": 100, "unit": "%"},
      {"measurement": "Anti-proliferation activity, MTS assay, in words", "setting": "[1]; HCT116, up to 10 μM", "value": "no effect"},
      {"measurement": "IC50", "setting": "[1]", "value": "> 10", "unit": "µM"},
      {"measurement": "IC50", "setting": "[3]; HEK293, 8 h", "value": "> 12", "unit": "µM"}
    ]},
    {"smiles": "CN(C(=O)c1cc(Cl)ccc1O)c1ccc(C(F)(F)F)cc1", "note": "[Compound 24, 5-chloro-2-hydroxy-N-methyl-N-(4-(trifluoromethyl)phenyl)benzamide]", "values": [
      {"measurement": "Fzd1-GFP internalization @12.5 μM", "setting": "Frizzled1-GFP", "value": 0},
      {"measurement": "activity at 2 µM", "setting": "β-catenin; HCT-116, 18 h", "value": 96, "unit": "%"},
      {"measurement": "IC50", "setting": "[1]", "value": "> 10", "unit": "µM"},
      {"measurement": "IC50", "setting": "[3]; HEK293, 8 h", "value": "> 12", "unit": "µM"}
    ]},
    {"smiles": "CCCCCCCC(=O)Oc1ccc(Cl)cc1C(=O)Nc1ccc([N+](=O)[O-])cc1Cl", "note": "[Compound 61, 4-Chloro-2-((2-chloro-4-nitrophenyl)carbamoyl)phenyl octanoate]", "values": [
      {"measurement": "Fzd1-GFP internalization @12.5 μM", "setting": "Frizzled1-GFP", "value": 5},
      {"measurement": "activity at 2 µM", "setting": "β-catenin; HCT-116, 18 h", "value": 8, "unit": "%"},
      {"measurement": "IC50", "setting": "[1]", "value": "0.61 ± 0.11", "unit": "µM"},
      {"measurement": "Plasma exposure of niclosamide compared to 200 mg/kg niclosamide dosed orally, in words", "setting": "[4]; compound 61 in corn oil, 200 mg/kg oral", "value": "significantly increased plasma exposure of niclosamide"},
      {"measurement": "Liver fat deposits and tissue architecture (H&E sections), high fat diet", "setting": "[5]; high fat diet", "value": "limited white fatty deposits without the dysplastic tissue architecture"},
      {"measurement": "Effect on the liver (H&E sections), chow diet", "setting": "[5]; normal chow diet", "value": "minimal to no effect"},
      {"measurement": "IC50", "setting": "[3]; HEK293, 8 h", "value": "0.23 ± 0.06", "unit": "µM"}
    ]},
    {"smiles": "CCOC(=O)Oc1ccc(Cl)cc1C(=O)Nc1ccc(C(F)(F)F)cc1Cl", "note": "[Compound 70, 4-Chloro-2-((2-chloro-4-(trifluoromethyl)phenyl)carbamoyl)phenyl ethyl carbonate]", "values": [
      {"measurement": "Fzd1-GFP internalization @12.5 μM", "setting": "Frizzled1-GFP", "value": 5},
      {"measurement": "activity at 2 µM", "setting": "β-catenin; 18 hours", "value": 8, "unit": "%"},
      {"measurement": "IC50", "setting": "[1]", "value": "0.51 ± 0.06", "unit": "µM"},
      {"measurement": "IC50", "setting": "[3]; HEK293", "value": "0.34 ± 0.12", "unit": "µM"}
    ]},
    {"smiles": "O=c1oc2ccc(Cl)cc2c(=O)n1-c1ccc(C(F)(F)F)cc1Cl", "note": "[Compound 73, 6-Chloro-3-(2-chloro-4-(trifluoromethyl)phenyl)-2H-benzo[e][1,3]oxazine-2,4(3H)-dione]", "values": [
      {"measurement": "Fzd1-GFP internalization @12.5 μM", "setting": "Frizzled1-GFP", "value": 5},
      {"measurement": "activity at 2 µM", "setting": "β-catenin; HCT-116, 18 h", "value": 9, "unit": "%"},
      {"measurement": "IC50", "setting": "[1]", "value": "0.55 ± 0.07", "unit": "µM"},
      {"measurement": "IC50", "setting": "[3]; HEK293, 8 h", "value": "0.33 ± 0.1", "unit": "µM"}
    ]},
    {"smiles": "O=c1oc2ccc(Cl)cc2c(=O)n1-c1ccc(C(F)(F)F)cc1", "note": "[Compound 74, 6-chloro-3-(4-(trifluoromethyl)phenyl)-2H-benzo[e][1,3]oxazine-2,4(3H)-dione]", "values": [
      {"measurement": "Pharmacokinetic properties after oral administration, in words", "setting": "[4]", "value": "poor pharmacokinetic properties"},
      {"measurement": "IC50", "setting": "[3]; HEK293, 8 h", "value": "0.32 ± 0.03", "unit": "µM"}
    ]}
  ]
}
